Source: ChEMBL document CHEMBL1136121, “Side-chain-to-tail thiolactone peptide inhibitors of the staphylococcal quorum-sensing system” (Bioorg Med Chem Lett, 2003)
Positions of bridges follow the written chain, without caps; N, C: chain ends. Non-standard residues stand in square brackets, D forms with d. Residues, ends and D or L forms follow the SMILES beside them. Abu = CC[C@H](N)C(=O)O

What was measured:
[1] = test system: Staphylococcus aureus; test: Compound tested to inhibit staphylococcal AgrC-2; type: functional, organism-based
[2] = test system: Staphylococcus aureus; test: Compound tested to inhibit staphylococcal AgrC-1; type: functional, organism-based

Compound	IC50 [1]	IC50 [2]
CC[C@@H]1NC(=O)[C@@H](NC(=O)[C@@H](NC(=O)[C@H](CO)NC(=O)[C@@H](N)Cc2ccc(O)cc2)[C@@H](C)O)CSC(=O)[C@H](CCSC)NC(=O)[C@H]([C@@H](C)CC)NC(=O)[C@H](Cc2ccccc2)NC1=O (H-YSTC[Abu]FIM; thioester 4-C)	2.8 nM	137 nM
CC[C@H](C)[C@H]1NC(=O)[C@@H](Cc2ccccc2)NC(=O)[C@@H](C)NC(=O)[C@H](NC(=O)[C@@H](NC(=O)[C@H](CO)NC(=O)CCCOc2ccc(C(=O)c3ccccc3)cc2)[C@@H](C)O)CSC(=O)[C@@H](CCSC)NC1=O	18 nM	303 nM
CC[C@H](C)[C@@H]1NC(=O)[C@@H](Cc2ccccc2)NC(=O)[C@H](C)NC(=O)[C@H](NC(=O)[C@@H](NC(=O)[C@H](CO)NC(=O)CCCOc2ccc(Cc3ccccc3)cc2)[C@@H](C)O)CSC(=O)[C@H](CCSC)NC1=O	19 nM	295 nM
CC[C@H](C)[C@@H]1NC(=O)[C@H](Cc2ccccc2)NC(=O)[C@H](C)NC(=O)[C@@H](NC(=O)[C@@H](NC(=O)[C@H](CO)NC(=O)[C@@H](N)Cc2ccc(O)cc2)[C@@H](C)O)CSC(=O)[C@H](CCSC)NC1=O (H-YSTCAFIM; thioester 4-C)	4 nM	21 nM
